# Test results as given in patent publication US20220249447A1, “CF3-, OCF3-, SCF3-, and SF5-Containing Antibacterial Agents” (Purdue Research Foundation, priority 2019, published 2022).
# Key:
# S. aureus = assay: MIC, broth microdilution, S. aureus; type: cell-based; details: Staphylococcus aureus
# Procedure: (§1) Bacteria were cultured in cation-adjusted Mueller Hinton Broth (for strains in Tables 1-3) or Brain Heart Infusion broth (for Enterococcus faecium) or Tryptic Soy Broth (all other bacteria) in a 96-well plate at 37° C. for at least 20 hours. The MIC was classified as the lowest concentration where no visual growth of bacteria was observed. The minimum bactericidal concentration (MBC) was tested by spotting 4 μL from wells with no growth onto Tryptic Soy Agar (TSA) plates. Plates were incubated at 37° C. for at least 18 hours before recording the MBC.
# C. difficile ATCC 43255 = assay: MIC against C. difficile ATCC 43255; type: cell-based; details: Clostridioides difficile, ATCC43255; read-out: MIC C. difficile ATCC 43255
# Procedure: as §1
# MRSA ATCC 33592 = assay: MIC, broth microdilution, MRSA ATCC 33592; type: cell-based, methicillin-resistant S. aureus; details: Staphylococcus aureus
# Procedure: All MRSA isolates were acquired from BEI Resources. The remaining bacteria were purchased from the American Type Culture Collection (ATCC).
# as §1
# [1] = test system: C. difficile NR-32891 (P13); assay: MIC against C. difficile NR-32891 (P13); type: cell-based; details: Clostridioides difficile; read-out: MIC C. difficile NR-32891 (P13)
# Procedure: as §1
# [2] = test system: C. difficile NR-32904 (P30); assay: MIC against C. difficile NR-32904 (P30); type: cell-based; details: Clostridioides difficile; read-out: MIC C. difficile NR-32904 (P30)
# Procedure: as §1
# [3] = test system: Neisseria gonorrhea strain 181; assay: MIC against Neisseria gonorrhea strain 181; type: cell-based
# Procedure: as §1
# [4] = test system: L. monocytogenes ATCC 19115; assay: MIC, broth microdilution, L. monocytogenes ATCC 19115; type: cell-based; details: Listeria monocytogenes, ATCC19115
# Procedure: as §1
# E. faecalis ATCC 29212 = assay: MIC, broth microdilution, E. faecalis ATCC 29212; type: cell-based; details: Enterococcus faecalis, ATCC29212
# Procedure: as §1
# [5] = test system: C. difficile NR-32883 (P2); assay: MIC against C. difficile NR-32883 (P2); type: cell-based; details: Clostridioides difficile; read-out: MIC C. difficile NR-32883 (P2)
# Procedure: as §1
# [6] = test system: C. difficile NR-13432 (isolate 6); assay: MIC against C. difficile NR-13432 (isolate 6); type: cell-based; details: Clostridioides difficile; read-out: MIC C. difficile NR-13432 (isolate 6)
# Procedure: as §1
# [7] = test system: C. difficile NR-32895 (P19); assay: MIC against C. difficile NR-32895 (P19); type: cell-based; details: Clostridioides difficile; read-out: MIC C. difficile NR-32895 (P19)
# Procedure: as §1
# [8] = test system: C. difficile ATCC BAA 1801; assay: MIC against C. difficile ATCC BAA 1801; type: cell-based; details: Clostridioides difficile, BAA1801; read-out: MIC C. difficile ATCC BAA 1801
# Procedure: as §1
# VRE ATCC 51575 = assay: MIC, broth microdilution, VRE ATCC 51575; type: cell-based; details: Enterococcus
# Procedure: as §1
# [9] = test system: C. difficile NR-13435 (isolate 9); assay: MIC against C. difficile NR-13435 (isolate 9); type: cell-based; details: Clostridioides difficile; read-out: MIC C. difficile NR-13435 (isolate 9)
# Procedure: as §1
# MRSA USA300 cells = assay: Time-kill assay; type: cell-based; details: for Δlog2 CFU/mL: MRSA USA300, 3× MIC or 6× MIC, up to 24 hours
# Procedure: The time-kill analysis was performed as previously described^29. […] Aliquots (100 μL) were collected from each treatment after 0, 2, 4, 8, 12, and 24 hours of incubation at 37° C. and subsequently serially diluted in phosphate-buffered saline (PBS). Bacteria were then transferred to TSA plates and incubated at 37° C. for 18-20 hours before viable CFU/mL was determined (see FIG. 2).
MIC (S. aureus) [µg/mL],MIC (C. difficile ATCC 43255) [µg/mL],MIC (MRSA ATCC 33592) [µg/mL],MIC [1] [µg/mL],MIC [2] [µg/mL],MIC [3] [µg/mL],MIC [4] [µg/mL],MIC (E. faecalis ATCC 29212) [µg/mL],MIC [5] [µg/mL],MIC [6] [µg/mL],MIC [7] [µg/mL],MIC [8] [µg/mL],MIC (VRE ATCC 51575) [µg/mL],MIC [9] [µg/mL],SMILES,Bactericidal/Bacteriostatic (MRSA USA300 cells),Δlog2 CFU/mL (MRSA USA300 cells)
0.5,0.003,0.25,0.03,0.015,0.25,1,2,0.003,0.03,0.007,0.03,4,0.007,"O=C(Nc1nnc(-c2cccc(F)c2)o1)c1ccc(SC(F)(F)F)cc1 [HSGN-205, N-(5-(3-fluorophenyl)-1,3,4-oxadiazol-2-yl)-4-((trifluoromethyl)thio)benzamide]",,
0.25,0.25,0.25,0.125,0.125,0.5,0.5,1,0.06,0.125,0.06,0.125,0.5,0.06,"O=C(Nc1nnc(-c2ccc(C(F)(F)F)cc2)o1)c1ccc(SC(F)(F)F)cc1 [HSGN-203, N-(5-(4-(trifluoromethyl)phenyl)-1,3,4-oxadiazol-2-yl)-4-((trifluoromethyl)thio)benzamide]",,
0.125,0.003,0.125,0.03,0.015,0.25,0.125,0.25,0.003,0.03,0.007,0.03,0.25,0.007,"O=C(Nc1nnc(-c2cccc(Cl)c2)o1)c1ccc(SC(F)(F)F)cc1 [HSGN-204, N-(5-(3-chlorophenyl)-1,3,4-oxadiazol-2-yl)-4-((trifluoromethyl)thio)benzamide]",,
0.25,0.06,0.25,0.06,0.015,0.125,0.5,1,0.007,0.03,0.015,0.03,1,0.015,"O=C(Nc1nnc(-c2ccc(Cl)s2)o1)c1ccc(OC(F)(F)F)cc1 [HSGN-238, N-(5-(5-chlorothiophen-2-yl)-1,3,4-oxadiazol-2-yl)-4-(trifluoromethoxy)benzamide]",,
0.5,0.03,0.5,0.125,0.03,0.125,0.5,1,0.03,0.06,0.03,0.06,1,0.03,"O=C(Nc1nnc(-c2cccc(F)c2)o1)c1ccc(OC(F)(F)F)cc1 [HSGN-237, N-(5-(3-fluorophenyl)-1,3,4-oxadiazol-2-yl)-4-(trifluoromethoxy)benzamide]",,
0.0625,0.015,0.0625,0.007,0.007,0.125,0.125,0.25,0.007,0.03,0.007,0.03,0.25,0.003,"O=C(Nc1nnc(-c2cc(Cl)cc(Cl)c2)o1)c1ccc(SC(F)(F)F)cc1 [HSGN-218, N-(5-(3,5-dichlorophenyl)-1,3,4-oxadiazol-2-yl)-4-((trifluoromethyl)thio)benzamide]",,

SMILES,MIC (S. aureus) [µg/mL],MIC (C. difficile ATCC 43255) [µg/mL],MIC (MRSA ATCC 33592) [µg/mL],MIC [1] [µg/mL],MIC [2] [µg/mL],MIC [3] [µg/mL],MIC [4] [µg/mL],MIC (E. faecalis ATCC 29212) [µg/mL],MIC [5] [µg/mL],MIC [6] [µg/mL],MIC [7] [µg/mL],MIC [8] [µg/mL],MIC (VRE ATCC 51575) [µg/mL],MIC [9] [µg/mL],Bactericidal/Bacteriostatic (MRSA USA300 cells),Δlog2 CFU/mL (MRSA USA300 cells)
"O=C(Nc1nnc(-c2cccs2)o1)c1ccc(OC(F)(F)F)cc1 [HSGN-145, N-(5-(thiophen-2-yl)-1,3,4-oxadiazol-2-yl)-4-(trifluoromethoxy)benzamide]",1,0.5,1,2,1,,8,> 8,1,0.5,1,0.5,8,0.5,Bacteriostatic,0.69
"O=C(Nc1nnc(-c2cccs2)o1)c1ccc(SC(F)(F)F)cc1 [HSGN-148, N-(5-(thiophen-2-yl)-1,3,4-oxadiazol-2-yl)-4-((trifluoromethyl)thio)benzamide]",1,0.5,0.5,0.5,0.5,0.06,2,4,0.5,0.5,0.5,0.5,4,0.5,Bactericidal,4.2
"O=C(Nc1nnc(-c2cccs2)o1)c1ccc(S(F)(F)(F)(F)F)cc1 [HSGN-144, 4-(pentafluoro-sulfanyl)-N-(5-(thiophen-2-yl)-1,3,4-oxadiazol-2-yl)benzamide]",0.25,0.125,0.5,0.125,0.125,,1,2,0.003,0.015,0.06,0.03,2,0.015,Bactericidal,3.96
